Values belong to the molecule of their own block, whether it stands above or below them.
Assay: solvent given as SMILES

SMILES: CCC(C)Cl (stereo not given)
solvation free energy, 298 K (in C1CCOC1): -4.34 kcal/mol
solvation free energy, 298 K (in C1CCOCC1): -4.24 kcal/mol
solvation free energy, 298 K (in C1COCCO1): -4.08 kcal/mol
solvation free energy, 298 K (in C=CCCCCCCCCCCCCCC): -3.46 kcal/mol
solvation free energy, 298 K (in CC(C)OC(C)C): -3.95 kcal/mol
solvation free energy, 298 K (in CCCCCC): -3.84 kcal/mol
solvation free energy, 298 K (in CCCCCl): -4.16 kcal/mol
solvation free energy, 298 K (in COC(C)(C)C): -4.08 kcal/mol

solvation free energy, 298 K (in C=CCCCCCCC=C): -4.98 kcal/mol
solvation free energy, 298 K (in C=CCCCCCCCCCCCCCC): -4.26 kcal/mol
SMILES: CC(N)=O

SMILES: CC(C)CN(CC(C)C)N=O
solvation free energy, 298 K (in CC(C)CC(C)(C)C): -7.35 kcal/mol
solvation free energy, 298 K (in O): -4.84 kcal/mol

solvation free energy, 298 K (in O): -2.11 kcal/mol
SMILES: CCCCCOC(=O)CC

solvation free energy, 298 K (in CCCCCCCC): -4.87 kcal/mol
solvation free energy, 298 K (in CCCCCCCCCC): -4.81 kcal/mol
SMILES: CCC(C)C(C)O (stereo not given)

solvation free energy, 298 K (in O): 1.13 kcal/mol
SMILES: CC1CCC2(C(C)C)CC12 (stereo not given)

solvation free energy, 298 K (in CCCCCCCC): -4.84 kcal/mol
solvation free energy, 298 K (in CCCCCCCCCC): -4.78 kcal/mol
SMILES: CC(C)CCCO

SMILES: CC(=O)C1COCCOCCOCCOCCOc2ccccc2O1 (stereo not given)
solvation free energy, 298 K (in Cc1cccc(C)c1): -19.2 kcal/mol
solvation free energy, 298 K (in O): -17.8 kcal/mol

SMILES: CCCCCCCCBr
solvation free energy, 298 K (in O): 0.52 kcal/mol

solvation free energy, 298 K (in O): -1.09 kcal/mol
SMILES: CCCCCCCCC=CCCCCCCCCCCCC(=O)OC

solvation free energy, 298 K (in O): -6.49 kcal/mol
SMILES: CCCCCCCCCCOC(=O)c1ccccc1C(=O)OCCCCC

solvation free energy, 298 K (in Brc1cccc2ccccc12): -2.84 kcal/mol
solvation free energy, 298 K (in CC(=O)OCc1ccccc1): -2.92 kcal/mol
solvation free energy, 298 K (in CN1CCCC1=O): -3.33 kcal/mol
solvation free energy, 298 K (in CN(C)C=O): -3.41 kcal/mol
solvation free energy, 298 K (in O): -0.22 kcal/mol
solvation free energy, 298 K (in c1ccc2ncccc2c1): -2.88 kcal/mol
SMILES: C1=CCC=C1

solvation free energy, 298 K (in CCCCCCCCCCCCCCCC): -4.32 kcal/mol
solvation free energy, 298 K (in CCCCCCCCO): -4.71 kcal/mol
solvation free energy, 298 K (in O): -2.41 kcal/mol
solvation free energy, 298 K (in [2H]O[2H]): -2.47 kcal/mol
SMILES: CC(=O)OCC(C)C

solvation free energy, 298 K (in C=CCCCCCCCCCCCCCC): -3.64 kcal/mol
solvation free energy, 298 K (in CN1CCCC1=O): -3.67 kcal/mol
solvation free energy, 298 K (in O): 0.75 kcal/mol
SMILES: C=CC=CCC

SMILES: CCCN(CCC)c1c([N+](=O)[O-])cc(C(F)(F)F)cc1[N+](=O)[O-]
solvation free energy, 298 K (in O): -3.25 kcal/mol

SMILES: CC(C)(C)c1ccc(O)cc1
solvation free energy, 298 K (in CCCCCC): -7.63 kcal/mol
solvation free energy, 298 K (in O): -5.91 kcal/mol

SMILES: CCCCCCOC(=O)c1ccccc1C(=O)OCCCCCC
solvation free energy, 298 K (in O): -6.78 kcal/mol

SMILES: CC(C)(Cl)Cl
solvation free energy, 298 K (in O): -0.43 kcal/mol

solvation free energy, 298 K (in O): -12.4 kcal/mol
SMILES: CCOc1ccc(C(=O)N(O)c2ccc(C)cc2)cc1

SMILES: Clc1cc(Cl)c(-c2ccccc2)cc1Cl
solvation free energy, 298 K (in CCCCCCCCO): -10.6 kcal/mol

SMILES: CCCCC#N
solvation free energy, 298 K (in CCCCCC): -4.45 kcal/mol
solvation free energy, 298 K (in CCCCCCCCCCCCCCCC): -4.01 kcal/mol
solvation free energy, 298 K (in CCCCCCCCO): -4.89 kcal/mol
solvation free energy, 298 K (in O): -3.49 kcal/mol
solvation free energy, 298 K (in [2H]O[2H]): -3.42 kcal/mol

solvation free energy, 298 K (in O): -4.3 kcal/mol
SMILES: CC(=O)C(C)=O

SMILES: CCc1ccccc1
solvation free energy, 298 K (in C1CCOC1): -6.03 kcal/mol
solvation free energy, 298 K (in C1COCCO1): -5.7 kcal/mol
solvation free energy, 298 K (in C=CCCCCCCCCCCCCCC): -5.07 kcal/mol
solvation free energy, 298 K (in CC#N): -5.19 kcal/mol
solvation free energy, 298 K (in CC(=O)N(C)C): -5.46 kcal/mol
solvation free energy, 298 K (in CC(C)(C)O): -4.99 kcal/mol
solvation free energy, 298 K (in CC(C)CC(C)(C)C): -5.3 kcal/mol
solvation free energy, 298 K (in CC(C)CO): -4.95 kcal/mol
solvation free energy, 298 K (in CC(C)O): -4.88 kcal/mol
solvation free energy, 298 K (in CC(O)CO): -4.1 kcal/mol
solvation free energy, 298 K (in CCC#N): -5.78 kcal/mol
solvation free energy, 298 K (in CCC(C)=O): -5.62 kcal/mol
solvation free energy, 298 K (in CCCC#N): -5.6 kcal/mol
solvation free energy, 298 K (in CCCCC(CC)COC(=O)CCCCC(=O)OCC(CC)CCCC): -5.37 kcal/mol
solvation free energy, 298 K (in CCCCCC): -5.35 kcal/mol
solvation free energy, 298 K (in CCCCCCC): -5.36 kcal/mol
solvation free energy, 298 K (in CCCCCCCCCC): -5.23 kcal/mol
solvation free energy, 298 K (in CCCCCCCCCCCCCCCC): -5.16 kcal/mol
solvation free energy, 298 K (in CCCCCCCCO): -5.05 kcal/mol
solvation free energy, 298 K (in CCCCN(C=O)CCCC): -5.44 kcal/mol
solvation free energy, 298 K (in CCCCOC(=O)c1ccccc1C(=O)OCCCC): -5.38 kcal/mol
solvation free energy, 298 K (in CCCO): -4.93 kcal/mol
solvation free energy, 298 K (in CCO): -4.83 kcal/mol
solvation free energy, 298 K (in CCOC(=O)c1ccccc1C(=O)OCC): -5.23 kcal/mol
solvation free energy, 298 K (in CN(C)C=O): -5.41 kcal/mol
solvation free energy, 298 K (in CNC(C)=O): -5.05 kcal/mol
solvation free energy, 298 K (in CNC=O): -4.82 kcal/mol
solvation free energy, 298 K (in CO): -4.86 kcal/mol
solvation free energy, 298 K (in COCCO): -5.05 kcal/mol
solvation free energy, 298 K (in Clc1ccccc1): -5.84 kcal/mol
solvation free energy, 298 K (in NC=O): -3.26 kcal/mol
solvation free energy, 298 K (in O): -0.72 kcal/mol
solvation free energy, 298 K (in O=CN1CCOCC1): -5.01 kcal/mol
solvation free energy, 298 K (in O=Cc1ccco1): -5.04 kcal/mol
solvation free energy, 298 K (in OCCCCCO): -4.4 kcal/mol
solvation free energy, 298 K (in OCCCCO): -4.2 kcal/mol
solvation free energy, 298 K (in OCCCO): -3.91 kcal/mol
solvation free energy, 298 K (in OCCO): -3.36 kcal/mol
solvation free energy, 298 K (in OCCOCCO): -4.15 kcal/mol
solvation free energy, 298 K (in OCCOCCOCCO): -4.31 kcal/mol
solvation free energy, 298 K (in OCCOCCOCCOCCO): -4.38 kcal/mol
